Consider 8 sequences from patent US20110275573A1, “TISSUE ADHESIVE” (METAMOREFIX LTD., priority 2008, published 2011).

Entries after “also recorded” stand apart in the source; their conditions may differ.

In experiment [1] the test system is human foreskin fibroblasts (FF1). In words: Cell attachment assay in monolayers (peptide-coated Sepharose beads). Type of experiment: cell-based. Here is the method:
(§1) A peptide solution in coupling buffer prepared as above was immediately added to the activated Sepharose beads Sepharose beads were used to fixate the peptides for all in-vitro assays in the column to a final binding of 6 mg peptide per ml gel. The column was closed and shaken overnight at 4° C. very gently to avoid mechanical breakage of the beads. The bottom cap of the column was removed and the solution of ligand/buffer was collected as the Sepharose Beads settled on the filter. The OD280 of the collected buffer was checked to determine the concentration of uncoupled peptide. The gel was washed/aspirated with 5 volumes (˜2 ml) of coupling buffer and gently mixed. Any remaining active groups on the gel were blocked with blocking buffer for 2 hours at room temperature or overnight at 4° C. The Sepharose beads gel with peptides was then washed by 2 cycles each of 5 gel volumes of: • a. 0.1 M Acetate buffer • b. Coupling buffer • c. Storing buffer: azide-coupling buffer: coupling buffer containing 0.1% NaN3 (final concentration)
(§2) The tested peptides (Table 1) were coupled to Sepharose Beads at two concentrations: 6 and 12 mg/ml Sepharose Beads. Sepharose Beads that underwent the coupling procedure without peptide addition (“naked Sepharose Beads”) served as a negative control (referred to herein as “Sepharose Beads-blank”). A cell binding assay was performed with 2 normal cell types: bovine aortal endothelial cells (BAEC) and human foreskin fibroblasts (FF1). Sepharose beads were added to 12 well culture plates with sub-confluent monolayer of the cultured cells (100-300 beads were added to each well). The fraction of Sepharose beads attached to the monolayer was determined at different times.

Experiment [2] relates to bovine aortal endothelial cells (BAEC). The experiment is described as above. The class given is cell-based. The conditions noted are these: for cell binding activity (BAEC), in words: 6 mg/ml. On the procedure:
as §1, §2

[3] abbreviates: FIG. 3a, concentration not given.

As to “KTRWYSMKKTTMKIIPFNR [PreC, positive control peptide, reference compound]”, the “cell binding of FF1 reached” value in experiment [1] (6 mg peptide/ml, FIG. 1) came out at 100%.
Regarding KGYKYSYKGGWTVFQRRMDGSVDFYR [C-M-Fic2], in experiment [1] (setting [3]), the “cell binding of FF1 reached” value is recorded as 100% and the “kinetic profile of cell binding of FF1” value is on record as “good kinetic profile of cell binding (fast attachment)”.
On to GGWTVFQRRMDGSVDFYRK [M-Fic-K], for which the “cell binding activity (FF1), in words” value in experiment [1] (6 mg peptide/ml) is on record as “dramatic change in activity”.
Consider “KGYKYSYKVSEMKFQRRMDGSVDFYRK [C-M-Fic-a-K]”, for which the “rate/kinetics of cell binding of FF1 compared with positive control PreC” value in experiment [1] (6 mg peptide/ml, FIG. 1, FIG. 2) is “accelerated the kinetics of cell binding”.
On to KGYKYSYKVSEMKVRPAK [C-Fic-a-K], for which the “cell binding of FF1 reached” value in experiment [1] (6 mg peptide/ml, FIG. 1) came to 100%.
For the sequence KGYNYSYKSEMKVRPAK [C-Fic, b25 prints …], in experiment [2] (6 mg peptide/ml, after 96 hours of incubation, cell type not stated (FF1 or BAEC)), the “extent of cell binding” value is “about 30%”. The “cell binding activity (BAEC), in words” value is given as “completely looses reactivity” in experiment [2] and “did not attach; also recorded: some activity” in experiment [2] (listed as C-fic). Moreover, the “cell binding activity (FF1), in words” value is “no reactivity” in experiment [1] (6 mg peptide/ml) and “did not attach; also recorded: looses its activity; also recorded: inactive” in experiment [1] (6 mg peptide/ml, listed as C-fic). Moreover, the “cell binding of FF1 reached” value in experiment [1] (12 mg peptide/ml, after 150 hours (FIG. 4b)) is 100%.
GGWTVFQRRVDGSVDFYRK [M-Fic]: in experiment [2] (6 mg/ml compared with 12 mg/ml, FIG. 9), the “binding rate of BAEC at the lower concentration” value is on record as “slight decrease”. In experiment [2] (3 weeks of incubation, x100, FIG. 12), the “Nomarsky optic microscopy of peptide coated beads attached to endothelial cells (BAEC)” value is “formation of small tubes”. Also, in experiment [2] (longer incubation times, FIGS. 10-12), the “activity in forming bead-cell aggregates and tube like structures” value is listed as “highest activity”. The “cell binding activity (FF1), in words” value in experiment [1] (6 mg peptide/ml) is “initially inferior to the positive control; also recorded: retains its activity”; in experiment [1] (6 mg peptide/ml, listed as M-fic), “retain most of its activity”. Besides, the “time to reach saturated cell binding” value in experiment [1] (6 mg/ml, FF1) is no more than 24 h. The “Nomarsky optic microscopy of peptide coated beads attached to FF1” value in experiment [1] (after 3 days of incubation, x100, FIG. 10) was “aggregates of cells and beads formed”. In addition, in experiment [1] (conclusions, cell type and concentration not stated), the “time to saturated attachment” value stood at 72 h.
With “KGYKYSYKGGWTVFQRRMDGSVDFYRK [C-M-Fic2-K, C-M-Fic2 with the addition of a lysine group]”, in experiment [1] (setting [3]), the “cell binding of FF1 reached” value came to 100% and the “kinetic profile of cell binding of FF1” value is recorded as “good kinetic profile of cell binding (fast attachment)”.
